# System: primary human T cells
# Experiment: Multidimensional screen for inhibition of T cell activation (IL-2, IFN-γ secretion, CD25, CD69 expression)
# Format: cell-based
# Settings: electrophilic compounds 10 μM each (DMF 50 μM), 24 h, anti-CD3/anti-CD28 activation
# Experimental: FIG. 4A-4D is an overview of a multidimensional screen to identify elaborated electrophilic compounds that suppress T cell activation. FIG. 4A is a workflow for T-cell activation screen. Primary human T cells were treated with a focused library of elaborated electrophilic compounds (10 μM, structures of compounds in FIG. 12), a positive control immunosuppressive compound (DMF, 50 μM), or DMSO under TCR-stimulating conditions in 96-well plates pre-coated with 5 μg/mL αCD3 and 2 μg/mL αCD28 for 24 h. T cell activation was measured using a combination of markers, including IL2 and IFNγ secretion, as well as surface expression of CD25 and CD69. T cell viability was measured by flow cytometry using a Fixable Near-IR LIVE/DEAD™ Cell Stain. Compounds were considered as active hits if they reduced IL2 cytokine production by >65% with <15% reduction in T cell viability in the cytotoxicity assay compared to DMSO control. […]
# The levels of secreted IL2, IFNγ and TNFα after incubating T cells in the presence of DMSO or electrophilic compounds under TCR-stimulating conditions were measured using DuoSet ELISA cytokine kits (R&D Systems) in clear microplates (R&D Systems) according to manufacturer's instructions and read using a CLARIOstar (BMG Labtech) plate reader (450 nm). All cytokine concentrations were calculated according to the standard curve generated for each experiment.
compound,measurement,value
"COC(=O)/C=C/C(=O)OC [DMF, reference compound]",suppress T cell activation,> 65%

# Source: patent US20240131032A1, “AN ACTIVITY-GUIDED MAP OF ELECTROPHILE-CYSTEINE INTERACTIONS IN PRIMARY HUMAN IMMUNE CELLS” (The Scripps Research Institute, priority 2019, published 2024)
